Laboratory results taken from PubChem BioAssay AID256 (DTP/NCI, 2004).
Values joined by “and” are separate entries in the source; they are usually repeats but may differ in a detail not shown here. Equal values may be shown once. Inconclusive results and toxic doses are left out. Rule for the calls: active = survival T/C of 150% or more; inactive = T/C below 125% in these data.

Test system: CD2F1 mice, L1210 leukemia ip, survival T/C
Assay: NCI In Vivo Anticancer Drug Screen. Data for tumor model L1210 Leukemia (intraperitoneal) in CD2F1 (CDF1) mice
Conditions: endpoint: mean survival time, higher = longer survival
In short: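 Tumor-bearing mice (transplanted tumor) were split into treated and vehicle control groups, and the measured endpoint of each treated group was divided by that of its vehicle controls.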

[1] = dose: 100.0 mg/kg/injection, schedule: Q04DX002 (ip), vehicle: saline with Tween-80
[2] = dose: 200.0 mg/kg/injection, schedule: Q04DX002 (ip), vehicle: saline with Tween-80
[3] = dose: 400.0 mg/kg/injection, schedule: Q04DX002 (ip), vehicle: saline with Tween-80
[4] = dose: 100.0 mg/kg/injection, schedule: Q01DX009 (ip), vehicle: saline with Tween-80
[5] = dose: 200.0 mg/kg/injection, schedule: Q01DX009 (ip), vehicle: saline with Tween-80
[6] = dose: 400.0 mg/kg/injection, schedule: Q01DX009 (ip), vehicle: saline with Tween-80
[7] = dose: 100.0 mg/kg/injection, schedule: Q04DX003 (ip), vehicle: saline with Tween-80
[8] = dose: 200.0 mg/kg/injection, schedule: Q04DX003 (ip), vehicle: saline with Tween-80

Measured: T/C

CC(=O)OC1C=C2CCC3C(CCC4(C)C(OC(C)=O)CCC34)C2(C)CC1 (stereo not given)
inactive: dose: 12.5 mg/kg/injection, schedule: Q04DX003 (ip), vehicle: Klucel (hydroxypropylcellulose) (HPC) 106 % of control | dose: 25.0 mg/kg/injection, schedule: Q04DX003 (ip), vehicle: Klucel (hydroxypropylcellulose) (HPC) 103 % of control | dose: 50.0 mg/kg/injection, schedule: Q04DX003 (ip), vehicle: Klucel (hydroxypropylcellulose) (HPC) 106 % of control

Nc1nc2c(ncn2C2OC(CO)C(O)C2O)c(=O)[nH]1.Nc1nc2c(ncn2C2OC(CO)C(O)C2O)c(=O)[nH]1.[NH2-].[NH2-].[Pt+2] (stereo not given)
inactive: dose: 6.25 mg/kg/injection, schedule: Q01DX009 (ip), vehicle: water 102 % of control and 106 % of control | dose: 12.5 mg/kg/injection, schedule: Q01DX009 (ip), vehicle: water 106 % of control and 112 % of control | dose: 25.0 mg/kg/injection, schedule: Q01DX009 (ip), vehicle: water 113 % of control and 124 % of control | dose: 50.0 mg/kg/injection, schedule: Q01DX009 (ip), vehicle: water 113 % of control | dose: 100.0 mg/kg/injection, schedule: Q01DX009 (ip), vehicle: water 123 % of control

CCCCNCCC(SSSC(CCNCCCC)c1ccc(Cl)cc1)c1ccc(Cl)cc1 (stereo not given)
inactive: dose: 6.25 mg/kg/injection, schedule: Q01DX009 (ip), vehicle: saline with Tween-80 101 % of control | dose: 12.5 mg/kg/injection, schedule: Q01DX009 (ip), vehicle: saline with Tween-80 95 % of control | dose: 25.0 mg/kg/injection, schedule: Q01DX009 (ip), vehicle: saline with Tween-80 95 % of control

COc1ccccc1N=Nc1c(O)n(-c2ccccc2Cl)c(=S)n(-c2ccccc2OC)c1=O
inactive: dose: 25.0 mg/kg/injection, schedule: Q04DX002 (ip), vehicle: saline with Tween-80 105 % of control | dose: 50.0 mg/kg/injection, schedule: Q04DX002 (ip), vehicle: saline with Tween-80 90 % of control | [1] 94 % of control

CCOc1ccc(OCC)c(NC(=O)Nc2ccccc2OC)c1
inactive: [1] 96 % of control | [2] 96 % of control | [3] 96 % of control

C=C(C)C1(Cc2ccccc2)C(=O)NC(=O)NC1=O
inactive: dose: 5.0 mg/kg/injection, schedule: Q01DX001 (ip), vehicle: saline 100 % of control | dose: 10.0 mg/kg/injection, schedule: Q01DX001 (ip), vehicle: saline 97 % of control | dose: 20.0 mg/kg/injection, schedule: Q01DX001 (ip), vehicle: saline 100 % of control | dose: 40.0 mg/kg/injection, schedule: Q01DX001 (ip), vehicle: saline 102 % of control

O=C(Cc1ccccc1)SC(=O)Cc1ccccc1
inactive: dose: 100.0 mg/kg/injection, schedule: Q01DX001 (ip), vehicle: saline with Tween-80 102 % of control | dose: 200.0 mg/kg/injection, schedule: Q01DX001 (ip), vehicle: saline with Tween-80 94 % of control | dose: 400.0 mg/kg/injection, schedule: Q01DX001 (ip), vehicle: saline with Tween-80 102 % of control

CCCCCCCCCCCCCCCC(=O)Nc1ccc(CC)cc1
inactive: [1] 103 % of control | [2] 91 % of control | [3] 95 % of control

Cc1ccc(S(=O)(=O)OCC2OCOC(COS(=O)(=O)c3ccc(C)cc3)C(O)C2O)cc1 (stereo not given)
inactive: [4] 101 % of control | [5] 98 % of control | [6] 96 % of control

O=C(Nc1cccc2c(NC(=O)c3ccccc3)cccc12)c1ccccc1
inactive: [4] 94 % of control | [5] 95 % of control | [6] 91 % of control

CCCC(C)(COC(N)=O)COC(N)=O
inactive: [7] 96 % of control | [8] 98 % of control | dose: 400.0 mg/kg/injection, schedule: Q04DX003 (ip), vehicle: saline with Tween-80 96 % of control

COC1CCC2CCN(C)C(Cc3ccc(Oc4ccc(CC5C6CC(OC)CCC6CCN5C)cc4)cc3)C2C1 (stereo not given)
inactive: dose: 1.56 mg/kg/injection, schedule: Q04DX002 (ip), vehicle: saline with Tween-80 90 % of control | dose: 3.13 mg/kg/injection, schedule: Q04DX002 (ip), vehicle: saline with Tween-80 94 % of control

NC(=O)c1n[nH]c(C2CC(O)C(CO)O2)n1 (stereo not given)
inactive: dose: 12.5 mg/kg/injection, schedule: Q01DX005 (ip), vehicle: water 96 % of control | dose: 25.0 mg/kg/injection, schedule: Q01DX005 (ip), vehicle: water 91 % of control | dose: 50.0 mg/kg/injection, schedule: Q01DX005 (ip), vehicle: water 92 % of control | dose: 100.0 mg/kg/injection, schedule: Q01DX005 (ip), vehicle: water 96 % of control | dose: 200.0 mg/kg/injection, schedule: Q01DX005 (ip), vehicle: water 94 % of control

CCCCC(OC(=O)Nc1cccc2ccccc12)C(C)C (stereo not given)
inactive: [7] 91 % of control | [8] 88 % of control
